Assay results reported in article PMC9445589, “Apolipoprotein E mimetic peptide COG1410 combats pandrug-resistant Acinetobacter baumannii” (Frontiers in Microbiology, 2022).
Converted amounts (≈) assume the structure as drawn. Non-standard residues stand in square brackets, D forms with d. Residues, ends and D or L forms follow the SMILES beside them. Aib = CC(C)(N)C(=O)O

What was measured:
A. baumannii YQ4 [1] = test: Live/Dead BacLight SYTO-9/PI staining, confocal microscopy; assay type: cell-based, Acinetobacter baumannii; conditions: 1× MIC COG1410 (16 μg/ml) or 5× MIC polymyxin B (80 μg/ml), 37°C, 30 min
Procedure: The damage to the cytoplasmic membrane was determined as described previously (Farkas et al., [2017]), with the Live/Dead BacLight bacterial viability kit (Invitrogen L7012). The log-phase culture of A. baumannii YQ4 was washed two times and suspended in PBS with the final OD600 of 0.1. […] Then, the cells were stained with 7.5 μM SYTO-9 and 30 μM propidium iodide (PI) in dark for 15 min. In total, 5 μl of culture was spotted on a clean slide coated with a thin layer of 1% agarose. The fluorescence was observed by Olympus FV3000 confocal laser scanning microscope. For SYTO-9, the excitation and emission were 483 and 503 nm, respectively. For PI, the excitation and emission were 493 and 636 nm, respectively.

[2] = test system: MDR Klebsiella oxytoca 7–85; conditions: microdilution method in the corresponding broth
[3] = test system: A. baumannii YQ4 intracellular ROS; test: ROS detection, DCFH-DA probe; assay type: cell-based, Acinetobacter baumannii; conditions: 16 μg/ml
Procedure: The intracellular ROS level was determined by the Reactive Oxygen Species Assay Kit of Beyotime Biotechnology (S0033S), according to the manufacturer's instructions. The log-phase culture of A. baumannii YQ4 was harvested and washed in PBS, and then diluted 10 times, approximately 10^7 CFU/ml. In total, 1 μl of DCFH-DA (10 μM) was added to 1 ml of cell culture and incubated at 37°C for 20 min. Then the fluorescence probe was fully removed by washing with PBS three times and resuspending in PBS, followed by the addition of COG1410 (16 μg/ml) or water. Rosup (50 μg/ml) was positive control in the kit. The culture was incubated at 37°C for 30 min. The fluorescence intensity was measured by a plate reader at an excitation wavelength of 488 nm and an emission wavelength of 525 nm. The experiment was performed in duplicate.

MDR Serratia mucosa YQ15 = conditions: microdilution method in the corresponding broth
[4] = test system: MDR Enterobacter cloacae 7–86; conditions: microdilution method in the corresponding broth
A. baumanii YQ4 = test: induction of resistance through serial passage; conditions: sub-MIC exposure, 55 passages
[5] = cytotoxicity assay, Cell Counting Kit 8; conditions: human, L02 cells (human hepatic, normal liver cell)
Procedure: Briefly, 100 μl of human hepatic L02 cells was seeded in the 96-well plate with 4 × 10^3 per well in RPMI-1640 medium containing 20% FBS and incubated at 37°C in a 5% CO2 atmosphere for 24 h. The cells without exposure to peptides were used as a negative control. Then, the L02 cells were incubated with different concentrations of COG1410 for another 24 h. Then, 10 μl of CCK8 solution was added to each well. After 2 h of incubation, the optical absorbance at 450 nm was measured with a BioTek synergy H1 plate reader. […] The experiments were done in triplicate.

[6] = test system: MDR Citrobacter freundii 7–83; conditions: microdilution method in the corresponding broth
[7] = test system: A. baumannii ATCC19606 and two LPS-modified strains, pmrA^P102R and pmrA^P102RmiaA^I221V; test: MIC against LPS-modified strains; assay type: cell-based, Acinetobacter baumannii; conditions: MIC in LB broth, wild type versus mutants
Procedure: The growth curve was measured in duplicate, with eight wells for each treatment in a 96-well plate each time. […] Experiments were conducted in triplicate. Data indicated mean ± SD values.

[8] = test system: MDR Pseudomonas aeruginosa 14–61; conditions: microdilution method in the corresponding broth
[9] = test system: Porphyromonas gingivalis ATCC33277
[10] = test system: vancomycin-resistant Enterococcus faecium 11–47; conditions: vancomycin-resistant 11–47
A. baumannii = conditions: 1× MIC, PBS, 2 h
[11] = test system: Acinetobacter baumannii ATCC19606
[12] = test system: MDR Streptococcus pneumoniae 10–58; conditions: microdilution method in the corresponding broth
[13] = test system: panel of Gram-positive and Gram-negative strains; test: MIC on a panel of strains; assay type: cell-based; conditions: Streptococcus pneumoniae, methicillin-sensitive S. aureus, MRSA, Klebsiella pneumoniae, Pseudomonas aeruginosa
Procedure: The antimicrobial activity of COG1410 was determined by measuring the minimal inhibition concentration (MIC) values on a panel of Gram-positive and Gram-negative strains (Table 1).

[14] = test system: PDR Klebsiella pneumoniae 84; conditions: microdilution method in the corresponding broth
[15] = test system: human red blood cell (RBC); conditions: 1 h
Procedure: The anti-coagulated (citrate) whole blood sample was pelleted by centrifugation at 700 g for 8 min, washed three times with PBS, and suspended in 0.5% (vol/vol) PBS. […] The highest concentration was 512 μg/ml (363 μM). PBS and Triton X-100 (0.1%) were used as negative and positive controls, respectively. The plate was incubated at 37°C for 1 h, followed by centrifugation at 1,000 rpm for 5 min at 4°C. Aliquots of 60 μl of the supernatant from each well were quickly transferred to a new flat-bottom 96-well plate. The optical absorbance at OD414 was measured with a microplate reader (BioTek, synergy H1). The hemolysis percentage was then normalized with respect to the averaged negative (0%) and positive (100%) controls. Three independent experiments were conducted.

[16] = test system: EBSL-producing Proteusbacillus vulgaris YQ19; conditions: microdilution method in the corresponding broth
A. baumannii YQ4 [17] = test: ATP leak assay; assay type: cell-based, Acinetobacter baumannii; conditions: 16 μg/ml COG1410, 16 μg/ml polymyxin B or 32 μg/ml tigecycline (1× MIC), PBS, 37°C, 30 min
Procedure: ATP leak assay was performed using the Enhanced ATP Assay Kit of Beyotime ([…]) according to the manufacturer's manual. […] The supernatant was harvested and used for the measurement of ATP levels. In total, 100 μl of supernatant was mixed with 100 μl of working solution, and the chemiluminescence was measured by using a Biotek Synergy H1 plate reader. The untreated sample was set as a negative control. The experiments were performed in triplicate.

[18] = test system: vancomycin-resistant Enterococcus faecalis 11–34; conditions: vancomycin-resistant 11–34
[19] = test system: MDR Mycobacterium tuberculosis 6–45; conditions: microdilution method, 7H9 broth
plasmid pUC18 = test: DNA-binding assay, gel retardation
Procedure: Gel retardation experiments were conducted as previously described (Yan et al., [2013]). Briefly, 300 ng of the plasmid pUC18 was mixed with different concentrations of COG1410 in 30 μl of buffer (10 mM Tris-HCl and 1 mM EDTA buffer, pH 8.0) and incubated at room temperature for 30 min. The reaction mixtures were mixed with 1 × native loading buffer and subjected to 1.5% agarose gel electrophoresis. The migration of DNA was detected by the fluorescence of GelRed dye.

A. baumannii YQ4 [20] = test: transmission electron microscopy (TEM) of treated cells; conditions: 1× MIC (16 μg/ml), PBS, 37°C, 30 min
[21] = test system: A. baumannii YQ4 preformed biofilm; test: biofilm eradication assay, crystal violet; assay type: cell-based, Acinetobacter baumannii; conditions: 48 h preformed biofilm, 24 h treatment
Procedure: Biofilm eradication assay was performed as described previously (Mwangi et al., [2019]). A. baumannii YQ4 culture of log phase was diluted in fresh LB broth to OD600 0.01 and dispensed to a 96-well PVC plate with 200 μl per well. Plates were incubated at 37°C for 48 h and washed with PBS three times. Serial dilutions of COG1410 (0.5–128 μg/ml) were prepared using the same media, and 200 μl were dispensed into each well. Each concentration was determined in eight wells. LB without COG1410 was used as untreated control. After incubation for another 24 h, the remaining biofilm was quantified as described above. The experiments were performed in triplicate.

[22] = test system: Escherichia coli ATCC25922
[23] = test system: EBSL-producing Klebsiella pneumoniae YQ7; conditions: microdilution method in the corresponding broth
[24] = test system: Staphylococcus aureus ATCC29213; test: MIC, microdilution method; assay type: cell-based; conditions: microdilution method in the corresponding broth
Procedure: (§1) Strain stocks were maintained at −80°C in 10% glycerol. Bacteria were streaked on fresh plates before each experiment. Most of them were cultured in LB broth containing 10 g/L NaCl at 37°C, except for Mycobacteria in 7H9 broth and Enterococcus in BHI broth. Porphyromonas gingivalis was cultured in BHI broth supplemented with 1 μg/ml vitamin k1, 5 μg/ml hemin, and 5 mg/ml L-cysteine hydrochloride at 37°C in the anaerobic chamber. The minimal inhibitory concentrations (MICs) of antimicrobials were determined using the microdilution method in the corresponding broth.

[25] = test system: Pseudomonas aeruginosa PAO1; test: MIC, microdilution method; assay type: cell-based; conditions: microdilution method in the corresponding broth
Procedure: as §1

## CC(=O)N[C@@H](C)C(=O)N[C@@H](CO)C(=O)NC(C)(C)C(=O)N[C@@H](CC(C)C)C(=O)N[C@@H](CCCNC(=N)N)C(=O)N[C@@H](CCCCN)C(=O)N[C@@H](CC(C)C)C(=O)NC(C)(C)C(=O)N[C@@H](CCCCN)C(=O)N[C@@H](CCCNC(=N)N)C(=O)N[C@@H](CC(C)C)C(=O)N[C@@H](CC(C)C)C(N)=O [COG1410, acetyl-AS-Aib-LRKL-Aib-KRLL-amide] (Ac-AS[Aib]LRKL[Aib]KRLL-NH2)
A. baumannii YQ4 [1]
  SYTO-9/PI staining of treated cells: red fluorescence
[2]
  MIC: >256 µg/mL
[3]; 37°C, Figure 3D
  ROS production, in words: significantly lead to more ROS production
[3]; treatment for 20 min as printed
  more ROS detected by DCFH-DA probe: 30%
MDR Serratia mucosa YQ15
  MIC: >256 µg/mL
[4]
  MIC: 64 µg/mL (≈ 45.4 µM)
A. baumanii YQ4
  increase of MIC after serial passage: 4 fold
Bacillus subtilis 168
  MIC: 1 µg/mL (≈ 0.71 µM)
[5]
  EC50 at 24 h: 58.9 µg/mL (≈ 41.8 µM)
[6]
  MIC: 16 µg/mL (≈ 11.4 µM)
[7]
  effect of lipid A modification of LPS on antimicrobial efficacy: did not change the antimicrobial efficacy
[8]
  MIC: >256 µg/mL
[9]
  MIC: 32 µg/mL (≈ 22.7 µM)
[10]
  MIC: 16 µg/mL (≈ 11.4 µM)
A. baumannii
  A. baumannii population killed, in words: almost complete elimination
[11]
  MIC: 16 µg/mL (≈ 11.4 µM)
[12]
  MIC: >256 µg/mL
[13]
  antimicrobial activity in words: inactive
[14]
  MIC: >256 µg/mL
[15]
  EC50, lysis of half of the red blood cells: 441 µg/mL
[15]; red cells of human, 128 μg/ml
  hemolysis: < 5%
[16]
  MIC: >256 µg/mL
A. baumannii YQ4 [17]
  ATP leak (extracellular ATP): significantly more than untreated control and tigecycline treatment group
[18]
  MIC: 32 µg/mL (≈ 22.7 µM)
[19]
  MIC: 16 µg/mL (≈ 11.4 µM)
Plasmid pUC18; 1× MIC, 300 ng plasmid, 30 min room temperature, 1.5% agarose
  electrophoretic mobility of pUC18: only part of them migrated
Plasmid pUC18; higher concentrations than 1× MIC
  electrophoretic mobility of pUC18: completely retarded
A. baumannii YQ4 [20]
  cell membrane integrity by TEM: wrinkled and smaller compared with untreated cells
[21]; 1× MIC
  mature biofilm dispersed: approximately 46%
[21]; 4 × MIC
  biofilm eradicated: more than 88%
[22]
  MIC: 64 µg/mL (≈ 45.4 µM)
[23]
  MIC: >256 µg/mL
[24]
  MIC: >256 µg/mL
[25]
  MIC: >256 µg/mL
